Laboratory results: patent US20040224031A1, “Combination of amines and vanadium (IV)/(V) compounds for the treatment and/or prevention of diabetes mellitus” (priority 2003, published 2004)

Experiments:
isolated rat adipocytes = test: Hexose transport (2-deoxyglucose uptake) in isolated rat adipocytes; type: cell-based; parameters: stimulation of 2-deoxyglucose uptake, agent alone: dose or concentration left out as unconfirmed; conditions: for glucose transport (2-DG uptake): 45 min preincubation of fat cells with increasing concentrations; for stimulation of 2-deoxyglucose uptake, agent alone: benzylamine or orthovanadate alone, 10-min uptake
Protocol: Adipocyte isolation. […] Adipose cells isolated in such a way were used in subsequent studies.
Hexose transport. After a preincubation period of 45 min at 37° C. in vials containing 400 μl of cell suspension in KRBH with the tested products, [^3H]-2-deoxyglucose was added at a final concentration of 0.1 mM (approx. 1,300,000 d.p.m./vial). […] After centrifugation, the fat cells (upper part of the tubes) were placed in scintillation vials and the incorporated radioactivity was counted.

[1] = tested on: streptozotocin-induced diabetic rats; test: Chronic administration in streptozotocin-induced diabetic rats; type: in vivo, rat; conditions: for food and water consumption / weight of epididymal adipose tissue (adiposity): chronic treatment of diabetic rats
From the text: A group of animals was also subjected to daily i.p. injection of vanadate (50 μmol/kg body wt) for two weeks.
In other studies, rats were daily injected intraperitoneally with 25 μmol/kg vanadate for the first week and with 50 μmol/kg for the second week.

GLUT4 = tested on: GLUT4; parameters: increase in the abundance of GLUT4 in plasma membrane preparations / abundance of GLUT4 in plasma membranes, agent alone: dose or concentration left out as unconfirmed; conditions: for abundance of GLUT4 in plasma membranes, agent alone: benzylamine or orthovanadate alone; for amount of GLUT4 protein in the plasma membrane (PM): n=3, orthovanadate 0.1 mM
Protocol: To verify whether the stimulation of glucose transport in rat adipocytes may be explained by a translocation of the insulin-sensitive glucose transporters from an internal site to the plasma membrane, as it is known for insulin, the amount of GLUT4 protein was determined in plasma membrane (PM) and low density microsome (LDM) fractions.

[2] = 1 mM H2O2, preincubation 45 min, n=23
[3] = vanadate i.p. 25 μmol/kg first week and 50 μmol/kg second week, benzylamine 84 μmol/kg, FIG. 6, FIG. 7

Compound: OO [H2O2, hydrogen peroxide]
- effect relative to the maximal insulin effect (isolated rat adipocytes; [2]): 46%
- factor multiplying basal hexose transport (isolated rat adipocytes; [2]): 5.0±0.8 fold
- glucose transport (2-DG uptake) (isolated rat adipocytes; 5-min 2-DG uptake, FIG. 1): dose-dependently stimulated

Compound: NCc1ccccc1 [benzylamine]
- food and water consumption [1]: not detected
- weight of epididymal adipose tissue (adiposity) [1]: not detected
- glycemia [1, 3]: remained hyperglycemic
- abundance of GLUT4 in plasma membranes, agent alone (GLUT4; 45 minutes incubation): did not alter
- stimulation of 2-deoxyglucose uptake, agent alone (isolated rat adipocytes; FIG. 3): no stimulatory effect

Compound: CNC[C@H](O)c1cccc(O)c1 [phenylephrine]
- glucose transport (2-DG uptake) (isolated rat adipocytes; 5-min 2-DG uptake, FIG. 1): not activated

Compound: NNC(N)=O [semicarbazide]
- effect on glucose transport stimulated by 1 mM hydrogen peroxide plus 0.1 mM orthovanadate (isolated rat adipocytes): unaffected
- inhibition at 100 µM (isolated rat adipocytes; Rattus norvegicus, Adipocyte, read-out: inhibition of the glucose transport promoted by 1 mM tyramine plus orthovanadate): 59 ± 7%
- effect on stimulation of 2-deoxyglucose uptake by benzylamine and orthovanadate (isolated rat adipocytes; semicarbazide (1 mM), FIG. 3): abolished

Compound: NCCc1c[nH]c2ccc(O)cc12 [serotonin]
- glucose transport (2-DG uptake) (isolated rat adipocytes; 5-min 2-DG uptake, FIG. 1): not activated

Compound: NCCc1ccc(O)cc1 [tyramine]
- glucose transport (2-DG uptake) (isolated rat adipocytes; 5-min 2-DG uptake, FIG. 1): not activated
- synergism on glucose transport with low, ineffective doses of insulin (10 pM) or hydrogen peroxide (0.01 mM) (isolated rat adipocytes; not shown): no synergism

Compound: insulin: hormone used as positive control for glucose transport and GLUT4 translocation
- GLUT4 abundance in light microsomes (GLUT4): reduction
- increase in the abundance of GLUT4 in plasma membrane preparations (GLUT4; 45 minutes incubation): 3.3 fold
- content of β1-integrin, a constitutive PM protein (GLUT4; Example 2, plasma membrane fraction): without any significant change
- plasma membrane marker β1-integrin (GLUT4; Example 4, 45 minutes incubation): remained unaltered
- decrease of basal GLUT4 content of LDM (GLUT4; Western blot, low density microsomes): 29%
- amount of GLUT4 protein in the plasma membrane (PM) (GLUT4; Western blot): 252±43%
- increase of basal 2-DG uptake (isolated rat adipocytes; insulin, 45 min preincubation, 5-min 2-DG uptake, FIG. 1): twelve-fold

Compound: sodium orthovanadate
- food and water consumption [1]: not detected
- weight of epididymal adipose tissue (adiposity) [1]: not detected
- glycemia ([1]; vanadate 50 μmol/kg daily i.p. for two weeks, benzylamine 84 μmol/kg/day by osmotic minipumps, FIG. 5): moderate reduction
- glycemia [1, 3]: remained hyperglycemic
- abundance of GLUT4 in plasma membranes, agent alone (GLUT4; 45 minutes incubation): did not alter
- amount of GLUT4 protein in the plasma membrane (PM) (GLUT4; Western blot): 103±8%
- stimulation of glucose transport as % of that of 100 nM insulin (isolated rat adipocytes; 1 mM tyramine, 0.1 mM orthovanadate, 100 nM insulin, n=40): 5±1%
- stimulation of 2-deoxyglucose uptake, agent alone (isolated rat adipocytes; FIG. 3): did not stimulate
- effect on basal or insulin-stimulated glucose transport (isolated rat adipocytes; orthovanadate alone 0.1 mM, FIG. 2): did not affect
